System: C57BL/6J mice
Assay: oral glucose tolerance test (OGTT)
Format: in vivo
Conditions: 2 g/kg D-glucose oral
Method: The anti-diabetic effect of the wild ginseng CMCs prepared in Example 2 was examined by an oral glucose tolerance test OGTT. Wild ginseng CMCs were heat-treated at 95° C. for 48 hours, and an extract obtained by extracting the CMCs with 70% ethanol was administered orally. C57BL/6J mice (8-week-old, male) were fasted overnight. The weights and blood glucose levels of the C57BL/6J mice were measured, and then 2 g/kg of D-glucose was administered orally to the mice. At this time, the mice were fed with drinking water, but were not fed with feed. A change in the blood glucose level was measured at […] for 2 hours.
The […] was compared with resistant maltodextrin (RMD) and a red ginseng extract (RG-200), which are known as health supplements in the anti-diabetic field.

Question: How did the Blood glucose level (Time 0, 2 g/kg-treated diabetic group) turn out when Resistant maltodextrin [RMD] was run?
Answer: 169 mg/dL

Question: And the Blood glucose level (Time 30, 2 g/kg-treated diabetic group)?
Answer: 485 mg/dL

Question: And the Blood glucose level (Time 60, 2 g/kg-treated diabetic group)?
Answer: 350 mg/dL

Question: And the Blood glucose level (Time 120, 2 g/kg-treated diabetic group)?
Answer: 282 mg/dL

From patent US10646528B2, “Method for preparing extract of genus Panax including wild ginseng or ginseng, or cambial meristematic cells derived from genus panax or extract thereof containing rare ginsenosides in high quantity” (WELLKEY HOLDINGS LIMITED, priority 2014, dated 2020)
